Test results: US9670193B2 (Novartis AG, priority 2011, dated 2017)
pIC50: −log10 of the molar value.

Assays:
Type in all cases: biochemical
[1] = molecular target: T1, Human recombinant HDAC4 (Homo sapiens (Human), UniProt P56524); assay: Earlier version of HDAC4 assay; conditions: 10 μM substrate, test concentrations 0.003 μM to 100 μM
Description: Description of Earlier Version of HDAC4 Assay
Human recombinant HDAC4 was expressed in full length form (aa 2-1084) in Sf9 insect cells (obtained from ATCC) using baculovirus generated with Bac-to-Bac system (Invitrogen). Test compounds were serially diluted to reach final test concentrations from 0.003 μM to 100 μM. HDAC4 and test compounds were incubated in 25 mM Tris buffer pH 8.0 containing 137 mM NaCl, 2.7 mM KCl, 1 mM MgCl2 and 0.05% (w/v) bovine serum albumine for 2 hours at room temperature in presence of 10 μM of acetyl-Gly-Ala-Lys(ε-trifluoroacetyl)-AMC (AMC=7-amino-4-methyl coumarin) in a final volume of 200 μl. Control wells with HDAC4 only (positive control) and without HDAC4 (negative control) were included on the microplate. Bovine trypsin (10 μl of a 0.4 mg/ml solution) was added and the plate incubated for additional 15 minutes at room temperature. The plate was placed in a fluorescence microplate reader, and read at an excitation wavelength of 360 nm and an emission wavelength of 450 nm with a cut-off filter of 435 nm. Fluorescence values for all wells containing HDAC4 (positive control and wells with test compound) were corrected by subtracting negative control fluorescence values, and IC50 values were calculated by fitting the dose-response curves to a 4-parameter logistic function.

[2] = molecular target: T1, Human recombinant HDAC4; assay: HDAC4 assay (Test 1), fluorescence, acetyl-Gly-Ala-Lys(ε-trifluoroacetyl)-AMC substrate; conditions: 5 μM substrate, 2 hours at room temperature
Description: Test 1: HDAC4 Assay Description
(§1) Human recombinant HDAC4 was expressed in full length form (aa 2-1084) in Sf9 insect cells (obtained from ATCC) using baculovirus generated with Bac-to-Bac system (Invitrogen). Test compounds were serially diluted to reach final test concentrations from 0.000128 μM to 10 μM. HDAC4 and test compounds were incubated in 25 mM Tris buffer pH 8.0 containing 137 mM NaCl, 2.7 mM KCl, 1 mM MgCl2, 0.05% (w/v) bovine serum albumine and 0.005% (v/v) Triton-X-100 for 2 hours at room temperature in presence of 5 μM of acetyl-Gly-Ala-Lys(ε-trifluoroacetyl)-AMC (AMC=7-amino-4-methyl coumarin) in a final volume of 9 μl. Control wells with HDAC4 only (positive control) and without HDAC4 (negative control) were included on the microplate. Bovine trypsin (4.5 μl of a 300 nM solution) was added and the plate incubated for additional 15 minutes at room temperature. The plate was placed in a fluorescence microplate reader, and read at an excitation wavelength of 360 nm and an emission wavelength of 450 nm with a 10 nm bandpath. Fluorescence values for all wells containing HDAC4 (positive control and wells with test compound) were corrected by subtracting negative control fluorescence values, and IC50 values were calculated by fitting the dose-response curves to a 4-parameter logistic function.

[3] = molecular target: Human recombinant full length HDAC1 (Homo sapiens (Human), UniProt Q13547); assay: HDAC1 assay (Test 2), acetyl-Gly-Ala-Lys(acetyl)-AMC substrate; conditions: 5 μM substrate, 2 hours at room temperature
Description: as §1
Test 2: HDAC1 Assay Description
A similar assay procedure as described in Test 1 was used for HDAC1. Human recombinant full length HDAC1 expressed in a baculovirus expression system was purchased from BPS BioSciences (San Diego, Calif., U.S.A.). The substrate used in the […] assay was 5 μM of acetyl-Gly-Ala-Lys(acetyl)-AMC.

[4] = molecular target: Human recombinant full length HDAC6 (Homo sapiens (Human), UniProt Q9UBN7); assay: HDAC6 assay (Test 3), acetyl-Gly-Ala-Lys(acetyl)-AMC substrate; conditions: 5 μM substrate, 2 hours at room temperature
Description: as §1
Test 3: HDAC6 Assay Description
A similar assay procedure as described in Test 1 was used for HDAC6. Human recombinant full length HDAC6 expressed in a baculovirus expression system was purchased from BPS BioSciences (San Diego, Calif., U.S.A.). The substrate used in the […] assay was 5 μM of acetyl-Gly-Ala-Lys (acetyl)-AMC.

Chain of Human recombinant full length HDAC6 (Q9UBN7 whole entry): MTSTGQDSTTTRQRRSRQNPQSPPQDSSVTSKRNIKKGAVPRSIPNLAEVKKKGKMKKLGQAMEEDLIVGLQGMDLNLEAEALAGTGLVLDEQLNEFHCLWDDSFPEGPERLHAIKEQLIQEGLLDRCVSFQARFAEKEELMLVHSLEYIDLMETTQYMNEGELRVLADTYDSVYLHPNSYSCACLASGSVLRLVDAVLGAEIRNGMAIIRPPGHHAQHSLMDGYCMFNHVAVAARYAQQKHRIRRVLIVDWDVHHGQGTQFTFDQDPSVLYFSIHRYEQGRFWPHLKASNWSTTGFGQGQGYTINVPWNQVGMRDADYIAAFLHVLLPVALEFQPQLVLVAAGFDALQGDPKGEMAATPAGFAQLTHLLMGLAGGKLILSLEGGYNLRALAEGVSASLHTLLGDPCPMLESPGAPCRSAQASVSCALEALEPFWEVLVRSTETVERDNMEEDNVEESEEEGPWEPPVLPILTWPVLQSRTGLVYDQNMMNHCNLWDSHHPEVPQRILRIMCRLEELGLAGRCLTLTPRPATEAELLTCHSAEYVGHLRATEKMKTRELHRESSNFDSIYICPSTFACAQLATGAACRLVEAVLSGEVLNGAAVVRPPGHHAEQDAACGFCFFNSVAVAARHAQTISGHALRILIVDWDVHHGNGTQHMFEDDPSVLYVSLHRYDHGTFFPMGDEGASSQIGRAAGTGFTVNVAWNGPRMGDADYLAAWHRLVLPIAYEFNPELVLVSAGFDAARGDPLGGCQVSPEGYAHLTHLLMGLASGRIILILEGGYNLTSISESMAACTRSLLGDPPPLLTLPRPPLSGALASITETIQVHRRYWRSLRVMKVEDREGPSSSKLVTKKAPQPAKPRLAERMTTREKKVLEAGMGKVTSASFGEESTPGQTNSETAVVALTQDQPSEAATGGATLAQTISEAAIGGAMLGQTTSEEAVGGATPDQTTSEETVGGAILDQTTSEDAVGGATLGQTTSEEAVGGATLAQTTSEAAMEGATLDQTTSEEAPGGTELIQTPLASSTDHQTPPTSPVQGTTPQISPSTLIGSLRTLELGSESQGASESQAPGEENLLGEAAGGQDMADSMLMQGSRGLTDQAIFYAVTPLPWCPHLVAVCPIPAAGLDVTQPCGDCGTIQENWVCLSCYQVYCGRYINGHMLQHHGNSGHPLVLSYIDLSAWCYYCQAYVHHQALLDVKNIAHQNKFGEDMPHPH
Chain of Human recombinant full length HDAC1 (Q13547 whole entry): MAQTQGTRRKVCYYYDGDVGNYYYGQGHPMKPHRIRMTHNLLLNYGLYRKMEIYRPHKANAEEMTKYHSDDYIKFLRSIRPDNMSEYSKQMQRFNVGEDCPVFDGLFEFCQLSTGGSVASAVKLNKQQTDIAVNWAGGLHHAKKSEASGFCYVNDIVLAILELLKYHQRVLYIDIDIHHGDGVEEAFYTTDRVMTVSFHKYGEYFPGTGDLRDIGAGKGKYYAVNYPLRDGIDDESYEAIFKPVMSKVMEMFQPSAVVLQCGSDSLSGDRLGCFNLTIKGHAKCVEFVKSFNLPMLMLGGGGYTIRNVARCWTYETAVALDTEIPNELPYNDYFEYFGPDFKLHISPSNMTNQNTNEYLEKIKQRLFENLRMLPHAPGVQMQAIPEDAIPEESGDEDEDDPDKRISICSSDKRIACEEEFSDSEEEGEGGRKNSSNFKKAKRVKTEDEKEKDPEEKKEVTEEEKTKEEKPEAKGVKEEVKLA
T1 sequence (P56524 2-1084): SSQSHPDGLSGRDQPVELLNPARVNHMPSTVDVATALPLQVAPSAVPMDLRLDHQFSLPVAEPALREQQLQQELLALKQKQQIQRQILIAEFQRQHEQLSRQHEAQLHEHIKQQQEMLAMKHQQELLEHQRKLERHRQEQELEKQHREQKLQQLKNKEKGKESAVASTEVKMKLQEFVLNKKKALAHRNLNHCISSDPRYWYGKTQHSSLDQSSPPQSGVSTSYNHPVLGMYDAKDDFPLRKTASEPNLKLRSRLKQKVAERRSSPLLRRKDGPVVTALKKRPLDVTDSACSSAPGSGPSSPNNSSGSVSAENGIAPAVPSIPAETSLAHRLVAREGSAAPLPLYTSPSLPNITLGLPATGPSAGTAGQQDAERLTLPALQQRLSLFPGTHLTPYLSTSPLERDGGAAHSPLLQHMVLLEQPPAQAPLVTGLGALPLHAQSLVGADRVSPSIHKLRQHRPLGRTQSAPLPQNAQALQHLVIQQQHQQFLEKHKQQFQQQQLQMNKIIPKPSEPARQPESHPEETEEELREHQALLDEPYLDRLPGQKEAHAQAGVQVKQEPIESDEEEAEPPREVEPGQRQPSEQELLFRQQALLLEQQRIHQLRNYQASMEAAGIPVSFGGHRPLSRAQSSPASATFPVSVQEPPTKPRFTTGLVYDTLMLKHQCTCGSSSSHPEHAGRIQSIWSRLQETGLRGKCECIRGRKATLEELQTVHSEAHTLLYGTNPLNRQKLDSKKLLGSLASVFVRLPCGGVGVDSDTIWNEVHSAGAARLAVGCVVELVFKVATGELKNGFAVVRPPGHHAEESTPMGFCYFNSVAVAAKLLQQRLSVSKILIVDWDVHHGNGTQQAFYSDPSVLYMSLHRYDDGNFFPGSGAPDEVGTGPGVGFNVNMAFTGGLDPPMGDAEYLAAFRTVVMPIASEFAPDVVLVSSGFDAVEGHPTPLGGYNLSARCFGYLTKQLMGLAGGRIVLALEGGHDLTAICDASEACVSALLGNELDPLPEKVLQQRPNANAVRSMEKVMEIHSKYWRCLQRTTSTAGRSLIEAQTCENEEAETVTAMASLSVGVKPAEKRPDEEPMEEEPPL

| Compound | pIC50 [1] | pIC50 [2] | pIC50 [3] | pIC50 [4] |
| --- | --- | --- | --- | --- |
| C[C@@H](NC(=O)c1cnc(-c2noc(C(F)(F)F)n2)nc1)c1ccccc1 [(R)—N-(1-phenylethyl)-2-(5-(trifluoromethyl)-1,2,4-oxadiazol-3-yl)pyrimidine-5-carboxamide] | < 4.52 | – | – | – |
| C[C@H](CN(C)C)NC(=O)c1cnc(-c2noc(C(F)(F)F)n2)nc1 [Example 26, (R)—N-(1-(dimethylamino)propan-2-yl)-2-(5-(trifluoromethyl)-1,2,4-oxadiazol-3-yl)pyrimidine-5-carboxamide] | – | 6.38 | < 5.00 | < 5.00 |
| FC(F)(F)c1nc(-c2ccc(NCc3ccccc3)cn2)no1 [Example 27, N-benzyl-6-(5-(trifluoromethyl)-1,2,4-oxadiazol-3-yl)pyridin-3-amine] | – | 5.55 | 5.02 | < 5.00 |
| FC(F)(F)c1nc(-c2ccc(NCc3ccccc3)nc2)no1 [Example 28, N-benzyl-5-(5-(trifluoromethyl)-1,2,4-oxadiazol-3-yl)pyridin-2-amine] | – | 7.14 | < 5.00 | 5.52 |
| CC(Nc1ccc(-c2noc(C(F)(F)F)n2)cn1)c1ccccc1 (centres unmarked) [Example 29, N-(1-phenylethyl)-5-(5-(trifluoromethyl)-1,2,4-oxadiazol-3-yl)pyridin-2-amine] | – | 7.57 | 5.21 | 6.19 |
| FC(F)(F)c1nc(-c2ccc(NCc3cccnc3)nc2)no1 [Example 30, N-(pyridin-3-ylmethyl)-5-(5-(trifluoromethyl)-1,2,4-oxadiazol-3-yl)pyridin-2-amine] | – | 7.10 | 5.21 | 5.74 |
| FC(F)(F)c1nc(-c2ccc(NCc3ccncc3)nc2)no1 [Example 31, N-(pyridin-4-ylmethyl)-5-(5-(trifluoromethyl)-1,2,4-oxadiazol-3-yl)pyridin-2-amine] | – | 7.39 | 5.35 | 5.80 |
| Cc1ccc(CNc2ccc(-c3noc(C(F)(F)F)n3)cn2)cn1 [Example 32, N-((6-methylpyridin-3-yl)methyl)-5-(5-(trifluoromethyl)-1,2,4-oxadiazol-3-yl)pyridin-2-amine] | – | 7.20 | 5.62 | 6.11 |
| FC(F)(F)c1nc(-c2cnc(NCc3ccccc3)c(Cl)c2)no1 [Example 33, N-benzyl-3-chloro-5-(5-(trifluoromethyl)-1,2,4-oxadiazol-3-yl)pyridin-2-amine] | – | 7.03 | < 5.00 | < 5.00 |
| C[C@@H](Nc1ncc(-c2noc(C(F)(F)F)n2)cc1Cl)c1ccccc1 [Example 34, (R)-3-chloro-N-(1-phenylethyl)-5-(5-(trifluoromethyl)-1,2,4-oxadiazol-3-yl)pyridin-2-amine] | – | 7.33 | 5.20 | 5.35 |
| FC(F)(F)c1nc(-c2cnc(NCc3ccncc3)c(Cl)c2)no1 [Example 35, 3-chloro-N-(pyridin-4-ylmethyl)-5-(5-(trifluoromethyl)-1,2,4-oxadiazol-3-yl)pyridin-2-amine] | – | 7.96 | 5.96 | 5.74 |
| CC(Nc1ncc(-c2noc(C(F)(F)F)n2)cc1Cl)c1ccncc1 (centres unmarked) [Example 36, 3-chloro-N-(1-(pyridin-4-yl)ethyl)-5-(5-(trifluoromethyl)-1,2,4-oxadiazol-3-yl)pyridin-2-amine] | – | 8.19 | 6.07 | 5.96 |
| FC(F)(F)c1nc(-c2cnc(NCc3cccnc3)c(Cl)c2)no1 [Example 37, 3-chloro-N-(pyridin-3-ylmethyl)-5-(5-(trifluoromethyl)-1,2,4-oxadiazol-3-yl)pyridin-2-amine] | – | 7.72 | 5.92 | 5.70 |
| Cc1ccc(CNc2ncc(-c3noc(C(F)(F)F)n3)cc2Cl)cn1 [Example 38, 3-Chloro-N-((6-methylpyridin-3-yl)methyl)-5-(5-(trifluoromethyl)-1,2,4-oxadiazol-3-yl)pyridin-2-amine] | – | 7.68 | 5.85 | 5.81 |
| FC(F)(F)c1nc(-c2cnc(NCc3ccccn3)c(Cl)c2)no1 [Example 39, 3-chloro-N-(pyridin-2-ylmethyl)-5-(5-(trifluoromethyl)-1,2,4-oxadiazol-3-yl)pyridin-2-amine] | – | 7.43 | 5.60 | 5.72 |
| FC(F)(F)c1nc(-c2ccc(NCc3ccccc3)nn2)no1 [Example 40, N-benzyl-6-(5-(trifluoromethyl)-1,2,4-oxadiazol-3-yl)pyridazin-3-amine] | – | 6.70 | 5.10 | 6.08 |
| C[C@@H](Nc1cnc(-c2noc(C(F)(F)F)n2)nc1)c1ccccc1 [Example 41, (R)—N-(1-Phenylethyl)-2-(5-(trifluoromethyl)-1,2,4-oxadiazol-3-yl)pyrimidin-5-amine] | – | 7.22 | 5.40 | 5.89 |
| C[C@H](Nc1cnc(-c2noc(C(F)(F)F)n2)nc1)c1ccccc1 [Example 42, (S)—N-(1-Phenylethyl)-2-(5-(trifluoromethyl)-1,2,4-oxadiazol-3-yl)pyrimidin-5-amine] | – | 5.30 | < 5.00 | 5.72 |
| FC(F)(F)c1nc(-c2ncc(NCc3ccncc3)cn2)no1 [Example 43, N-(Pyridin-4-ylmethyl)-2-(5-(trifluoromethyl)-1,2,4-oxadiazol-3-yl)pyrimidin-5-amine] | – | 6.72 | 5.33 | 5.96 |
| C[C@@H](Nc1ccc(-c2noc(C(F)(F)F)n2)cn1)c1ccncc1 [Example 44] | – | 7.54 | 5.57 | 5.99 |
| C[C@@H](Nc1ccc(-c2noc(C(F)(F)F)n2)nn1)c1ccncc1 [Example 45, (R)—N-(1-(Pyridin-4-yl)ethyl)-6-(5-(trifluoromethyl)-1,2,4-oxadiazol-3-yl)pyridazin-3-amine] | – | 7.19 | 5.49 | 6.21 |
| C[C@H](CN(C)Cc1ccccc1)NC(=O)c1cnc(-c2noc(C(F)(F)F)n2)nc1 [Example 46] | – | 7.18 | < 5.00 | < 5.00 |
| O=C(NCc1ccncc1)c1cnc(-c2noc(C(F)(F)F)n2)nc1 [N-(pyridin-4-ylmethyl)-2-(5-(trifluoromethyl)-1,2,4-oxadiazol-3-yl)pyrimidine-5-carboxamide] | < 4.52 | – | – | – |
